{
  "source": "patent US4383990A",
  "about": "“Antiviral agents, their preparation and use” (priority 1980, dated 1983)",
  "key": {"[1]": {"tested_on": "Herpes simplex type 1 virus (HFEM strain)", "assay": "Plaque reduction of Herpes simplex type 1 virus (HFEM strain) in Vero cells", "format": "cell-based, Herpes simplex virus type 1", "settings": "for ED50 (concentration reducing the plaque number at 50%): HSV-1 strain HFEM, 8640 min; for ED50 (concentration reducing the plaque number at 50%) / IC50: Vero cells; for IC50: Human alphaherpesvirus 1, 144 h, HSV-1 HFEM strain, 37° C., 6 days", "from_the_text": "(§1) The same method was used to determine the ED50 (concentration reducing the plaque number at 50%) of the E/Z mixture against the KOS and SK16 strains of Herpes simplex virus type 1 and the ED50 of the E/Z mixture and the separated isomers (\"peak 1\" and \"peak 2\") against the HFEM strain."}, "[2]": {"tested_on": "Herpes simplex virus type 1 (KOS strain)", "assay": "Plaque reduction of Herpes simplex virus type 1, KOS strain", "format": "cell-based", "settings": "Human alphaherpesvirus 1, 144 h; HSV-1 strain KOS, Vero cells; read-out: ED50 (concentration reducing the plaque number at 50%)", "from_the_text": "as §1"}, "[3]": {"settings": "african green monkey, vero cells", "procedure": "Vero (African Green Monkey Kidney) cells were grown to confluence in 6 well multidishes, each well being 3.5 cm in diameter. The cells were incubated with Herpes simplex type 1 virus (HFEM strain) and overlaid with 0.5 mL of 0.9% agarose (w/v) in maintenance medium containing the test compound at a range of concentrations from 200 μg/mL in half-log dilution steps. The virus infected cultures were then incubated at 37° C. for 6 days before fixing in 4% formaldehyde solution and staining with carbolfuchsin. The dishes were then examined to find that concentration of test compound causing a 50% reduction in the number of virus plaques formed (PDD50 value) and the minimum concentration of test compound which killed the cell monolayer, leaving a clear zone devoid of cells and virus plaques (MTD)."}, "[4]": {"assay": "Anti-host cell activity: growth of Vero cells", "format": "cell-based, African Green Monkey", "settings": "monkey, vero cells; Vero cell growth versus antiviral activity; read-out: Therapeutic ratio", "description": "(§2) Vero cells seeded at low density were grown in the presence of E/Z-5-(2-chloro-1,2-difluorovinyl)-2'-deoxyuridine for 72 h. During this time the cells doubled in number approximately once every 24 h. […] 5-(2-Chloro-1,2-difluorovinyl)-2'-deoxyuridine thus has a therapeutic ratio of >5."}, "Vero cells": {"tested_on": "Vero cells", "assay": "Anti-host cell activity: growth of Vero cells", "format": "cell-based, African Green Monkey", "settings": "Vero cells, 72 h", "description": "as §2"}, "[5]": {"tested_on": "human diploid fibroblast MRC-5 cell line", "assay": "Anti-host cell activity: proliferation of human diploid fibroblast MRC-5 cells", "format": "cell-based", "settings": "even at 200 μg/ml"}, "[6]": {"tested_on": "Herpes simplex virus type 1 (SCl6 strain)", "assay": "Plaque reduction of Herpes simplex virus type 1, SCl6 strain", "format": "cell-based", "settings": "Human alphaherpesvirus 1, 144 h; HSV-1 strain SCl6, Vero cells; read-out: ED50 (concentration reducing the plaque number at 50%)", "from_the_text": "as §1"}},
  "data": [
    {"smiles": "O=c1[nH]c(=O)n([C@H]2C[C@H](O)[C@@H](CO)O2)cc1C(F)=C(F)Cl", "note": "[E/Z-5-(1,2-Difluoro-2-chlorovinyl)-2'-deoxyuridine]", "values": [
      {"measurement": "ED50 (concentration reducing the plaque number at 50%)", "setting": "[1]; listed as E/Z", "value": "24 ± 3", "unit": "µg/mL"},
      {"measurement": "IC50", "setting": "[1]", "value": 14, "unit": "µg/mL"},
      {"measurement": "EC50", "setting": "[2]", "value": 20, "unit": "µg/mL"},
      {"measurement": "MCC at 144 h", "setting": "[3]", "value": "> 200", "unit": "µg/mL"},
      {"measurement": "selectivity ratio", "setting": "[4]", "value": "> 5"},
      {"measurement": "Cell doubling time in the presence of compound", "setting": "Vero cells", "value": "~24", "unit": "h"},
      {"measurement": "Depression of cell growth", "setting": "Vero cells; 100 μg/ml", "value": "only slight depression of cell growth was observed"},
      {"measurement": "Effect on cell proliferation", "setting": "[5]", "value": "little effect on cell proliferation"},
      {"measurement": "EC50", "setting": "[6]", "value": 21, "unit": "µg/mL"}
    ]},
    {"smiles": "O=c1[nH]c(=O)n([C@H]2C[C@H](O)[C@@H](CO)O2)cc1C(F)=C(F)Cl", "note": "(single isomer, unassigned) [Peak 1]", "values": [
      {"measurement": "ED50 (concentration reducing the plaque number at 50%)", "setting": "[1]", "value": "> 100", "unit": "µg/mL"}
    ]},
    {"smiles": "O=c1[nH]c(=O)n([C@H]2C[C@H](O)[C@@H](CO)O2)cc1C(F)=C(F)Cl", "note": "(single isomer, unassigned) [Peak 2]", "values": [
      {"measurement": "ED50 (concentration reducing the plaque number at 50%)", "setting": "[1]", "value": "24 ± 6", "unit": "µg/mL"},
      {"measurement": "Activity of the separated isomers in the screens", "setting": "[1]; in words, at the levels tested", "value": "Only one of the isomers is active at the levels tested"}
    ]},
    {"smiles": "O=c1[nH]c(=O)n([C@H]2C[C@H](O)[C@@H](CO)O2)cc1I", "note": "[5-iodo-2'-deoxyuridine, reference compound]", "values": [
      {"measurement": "IC50", "setting": "[1]", "value": 3, "unit": "µg/mL"},
      {"measurement": "MCC at 144 h", "setting": "[3]", "value": "> 100", "unit": "µg/mL"}
    ]}
  ]
}
